The record followed here is patent publication US11149031B2, “Substituted N-(3-fluoropropyl)-pyrrolidine compounds, processes for their preparation and therapeutic uses thereof” (SANOFI, priority 2016, dated 2021).

Experiment [1] has as its target His6-ERα298-554 Y537S mutant (ERα ligand-binding domain) (Homo sapiens (Human), UniProt P03372, Y537S). As to the kind of experiment: Test A: biochemical antagonist activity, LanthaScreen TR-FRET ERα coactivator assay, Y537S mutant. The conditions noted are these: protocol with 3 nM estradiol; read-out: Antagonism Y537S IC50. As for the experimental part: (§1) Test A: Biochemical Antagonist Activity on Wild Type (WT) and Mutants
(§2) Estrogen Receptors Test A involves measuring the in vitro antagonist activity of the compounds of the invention on estrogen receptors.
(§3) The measurements of the antagonist activities were made using an estrogen receptor coactivator assay as described hereunder.
(§4) Antagonistic potency of compounds was evaluated using LanthaScreen® TR-FRET ERα Coactivator Assay (ThermoFisher) with modifications. […] The assay works in a homogeneous mix-and-read format. In a typical experiment, a 4 μL mixture of 0.5 nM His6-ERα298-554, 0.5 nM Tb-labeled His6 antibody, 250 nM PGC1a peptide, and 3 nM estradiol (or 10 nM estradiol) in 100 mM potassium phosphate, pH 7.4, 0.01% Tween-20, 0.02% NaN3, 5 mM DTT, was added to 40 nL test compound in DMSO and incubated overnight at room temperature. The TR-FRET 520:495 nm emission ratio was calculated and used to determine the IC50 value from a dose response curve fit to the 4-parameter logistic equation.

Another experiment has as its target ERα in MCF7 cells (Homo sapiens (Human), UniProt P03372). Kind of experiment: Test C: estrogen receptor degradation activity, ERα in cell western assay in MCF7 cells. Particulars: for DC50: 4 hours post compound addition, ERα in cell western, read-out: Degradation IC50; for % Degradation at 3 μM: 4 hours, relative to fulvestrant. The format is cell-based. As for the experimental part:
Test C: Estrogen Receptor Degradation Activity
Test C involves measuring the in vitro degradation activity of the compounds of the invention.
The measurements of the degradation activities were made using abreast cancer cell ERα in cell western assay as described hereunder.
MCF7 cells (ATCC) were seeded in 384 wells microplate (collagen coated) at concentration of >9990 cells/30 μL per well in red phenol free MEM alpha medium (invitrogen) containing 5% charcoal dextran striped FBS. The following day, 9 points serial 1:5 dilution of each compound were added to the cells in 2.5 μL at final concentrations ranging from 3-0.000018 μM or 0.1 μM for fulvestrant (using as positive control). At 4 hours post compounds addition the cells were fixed by adding 25 μL of formalin (final concentration 5% formalin containing 0.1% triton) for 10 minutes at room temperature and then washed twice with PBS. Then, 50 μL of LI-COR blocking buffer containing 0.1% Triton was added to plate for 30 minutes at room temperature. LI-COR blocking buffer was removed and cells were incubated overnight at cold room with 50 μL anti-ER rabbit monoclonal antibody (Thermo scientific MA1-39540) diluted at 1:>999 in LI-COR blocking buffer containing 0.1% tween-20. Wells which were treated with blocking but no antibody were used as background control. Wells were washed twice with PBS (0.1% tween-20) and incubated at 37° C. for 60 minutes in LI-COR (0.1% tween-20) containing goat anti-rabbit antibody Alexa 488 (1:>999) and Syto-64 a DNA dye (2 μM final concentration). Cells were then washed 3 times in PBS and scanned in ACUMEN explorer (TTP-Labtech). Integrated intensities in the green fluorescence and red fluorescence were measured to determine the levels of ERα and DNA respectively.

The target of experiment [2] is His6-ERα298-554 D538G mutant (ERα ligand-binding domain) (Homo sapiens (Human), UniProt P03372, D538G). As to the kind of experiment: Test A: biochemical antagonist activity, LanthaScreen TR-FRET ERα coactivator assay, D538G mutant. Particulars: protocol with 3 nM estradiol; read-out: Antagonism D538G IC50. As for the experimental part: as §1, §2, §3, §4
Experiment [3] has as its target His6-ERα298-554 WT (ERα ligand-binding domain) (Homo sapiens (Human), UniProt P03372). As to the kind of experiment: Test A: biochemical antagonist activity, LanthaScreen TR-FRET ERα coactivator assay, WT. The conditions noted are these: protocol with 3 nM estradiol; read-out: Antagonism WT IC50. As for the experimental part: as §1, §2, §3, §4
(Time-resolved FRET reads energy transfer from a long-lived donor to a nearby acceptor.)

The IC50 is the midpoint of a concentration-inhibition curve.

Chain of His6-ERα298-554 D538G mutant (ERα ligand-binding domain) (P03372 298-554 D538G): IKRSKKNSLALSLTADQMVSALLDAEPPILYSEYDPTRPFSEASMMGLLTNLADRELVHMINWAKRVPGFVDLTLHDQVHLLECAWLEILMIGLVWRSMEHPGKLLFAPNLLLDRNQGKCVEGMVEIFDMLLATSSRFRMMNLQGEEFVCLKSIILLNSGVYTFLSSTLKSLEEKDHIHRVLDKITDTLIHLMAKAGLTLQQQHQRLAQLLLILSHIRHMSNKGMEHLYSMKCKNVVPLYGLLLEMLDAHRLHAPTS
Chain of His6-ERα298-554 Y537S mutant (ERα ligand-binding domain) (P03372 298-554 Y537S): as the sequence (P03372 298-554 D538G) above, with Y240S, G241D counted along it
Chain of His6-ERα298-554 WT (ERα ligand-binding domain) (P03372 298-554): as the sequence (P03372 298-554 D538G) above, with G241D counted along it
Chain of ERα in MCF7 cells (P03372 whole entry): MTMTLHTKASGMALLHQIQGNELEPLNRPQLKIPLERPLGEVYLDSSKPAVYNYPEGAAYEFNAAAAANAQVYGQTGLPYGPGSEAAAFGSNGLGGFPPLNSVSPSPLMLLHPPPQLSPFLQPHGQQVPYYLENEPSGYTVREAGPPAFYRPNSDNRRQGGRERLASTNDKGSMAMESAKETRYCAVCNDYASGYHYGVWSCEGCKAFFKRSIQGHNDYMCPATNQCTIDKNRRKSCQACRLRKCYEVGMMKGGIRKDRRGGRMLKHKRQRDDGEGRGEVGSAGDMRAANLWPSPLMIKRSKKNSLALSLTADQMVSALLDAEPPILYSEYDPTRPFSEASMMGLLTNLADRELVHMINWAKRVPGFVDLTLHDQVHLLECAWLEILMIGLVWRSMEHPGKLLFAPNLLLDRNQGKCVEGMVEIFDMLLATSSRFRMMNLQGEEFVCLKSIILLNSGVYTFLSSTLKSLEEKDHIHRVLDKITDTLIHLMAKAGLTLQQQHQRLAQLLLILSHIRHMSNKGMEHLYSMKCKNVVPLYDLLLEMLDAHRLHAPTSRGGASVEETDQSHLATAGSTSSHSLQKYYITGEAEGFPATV

As to `Cc1ccc(C2=C(c3ccc(O[C@H]4CCN(CCCF)C4)cc3)c3ccc(O)c(C)c3OCC2)c(F)c1` [Example 111, 4-(2-fluoro-4-methyl-phenyl)-5-[4-[(3S)-1-(3-fluoropropyl)pyrrolidin-3-yl]oxyphenyl]-9-methyl-2,3-dihydro-1-benzoxepin-8-ol], the IC50 was 407 nM in experiment [1], 822 nM in experiment [2] and 91 nM in experiment [3]. Moreover, the DC50 at ERα in MCF7 cells came out at 6 nM. Moreover, the “% Degradation at 3 μM” value at ERα in MCF7 cells is 86%.

`Cc1c(Cl)cccc1C1=C(c2ccc(O[C@H]3CCN(CCCF)C3)cc2)c2ccc(O)c(Cl)c2OCC1` [Example 109, 9-chloro-4-(3-chloro-2-methyl-phenyl)-5-[4-[(3S)-1-(3-fluoropropyl)pyrrolidin-3-yl]oxyphenyl]-2,3-dihydro-1-benzoxepin-8-ol]: the IC50 in experiment [1] is 150 nM; in experiment [2] it was 215 nM; in experiment [3], 29 nM. In addition, the DC50 at ERα in MCF7 cells amounted to 1 nM. Besides, the “% Degradation at 3 μM” value at ERα in MCF7 cells is recorded as 90%.

Take `Cc1cc2c(cc1O)OCCC(c1cccc(O)c1)=C2c1ccc(O[C@H]2CCN(CCCF)C2)cc1` [Example 136, 5-[4-[(3S)-1-(3-fluoropropyl)pyrrolidin-3-yl]oxyphenyl]-4-(3-hydroxyphenyl)-7-methyl-2,3-dihydro-1-benzoxepin-8-ol]: the IC50 in experiment [1] turned out to be 44 nM; in experiment [2], 59 nM; in experiment [3], 4 nM. Moreover, the DC50 on ERα in MCF7 cells turned out to be 1 nM. Also, at ERα in MCF7 cells, the “% Degradation at 3 μM” value is listed as 79%.

Turning to `Cc1cc(F)ccc1C1=C(c2ccc(O[C@H]3CCN(CCCF)C3)cc2)c2ccc(O)cc2S(=O)(=O)CC1` [Example 234, 4-(4-fluoro-2-methyl-phenyl)-5-[4-[(3S)-1-(3-fluoropropyl)pyrrolidin-3-yl]oxyphenyl]-1,1-dioxo-2,3-dihydro-1λ^6-benzothiepin-8-ol], the IC50 stood at 33 nM in experiment [1], 59 nM in experiment [2] and 9 nM in experiment [3]. Further, the DC50 at ERα in MCF7 cells was found to be 0.2 nM. Further, the “% Degradation at 3 μM” value on ERα in MCF7 cells was found to be 90%.

Take `Cc1cc(C2=C(c3ccc(O[C@H]4CCN(CCCF)C4)cc3)c3ccc(O)cc3OCC2)ccc1Cl` [Example 99, 4-(4-chloro-3-methyl-phenyl)-5-[4-[(3S)-1-(3-fluoropropyl)pyrrolidin-3-yl]oxyphenyl]-2,3-dihydro-1-benzoxepin-8-ol]: the IC50 in experiment [1] came out at 25 nM; in experiment [2], 36 nM; in experiment [3], 5 nM. In addition, the DC50 on ERα in MCF7 cells worked out at 0.7 nM. Moreover, the “% Degradation at 3 μM” value at ERα in MCF7 cells turned out to be 89%.

For the compound `Oc1ccc2c(c1F)OCCC(c1cccc3[nH]ccc13)=C2c1ccc(O[C@H]2CCN(CCCF)C2)cc1` [Example 133, 9-fluoro-5-[4-[(3S)-1-(3-fluoropropyl)pyrrolidin-3-yl]oxyphenyl]-4-(1H-indol-4-yl)-2,3-dihydro-1-benzoxepin-8-ol], the IC50 in experiment [1] turned out to be 39 nM; in experiment [2], 64 nM; in experiment [3], 4 nM. The DC50 at ERα in MCF7 cells amounted to 2 nM. Besides, on ERα in MCF7 cells, the “% Degradation at 3 μM” value worked out at 83%.

Consider `Cc1cc(F)ccc1C1=C(c2ccc(O[C@H]3CCN(CCCF)C3)cc2)c2ccc(O)cc2OCC1` [Example 100, 4-(4-fluoro-2-methyl-phenyl)-5-[4-[(3S)-1-(3-fluoropropyl)pyrrolidin-3-yl]oxyphenyl]-2,3-dihydro-1-benzoxepin-8-ol], for which the IC50 in experiment [1] came out at 25 nM; in experiment [2], 54 nM; in experiment [3], 7 nM. Besides, the DC50 on ERα in MCF7 cells was 0.2 nM. Also, the “% Degradation at 3 μM” value on ERα in MCF7 cells was 88%.

Regarding `Oc1ccc2c(c1)C(c1ccc(O[C@H]3CCN(CCCF)C3)cc1)=C(c1ccc3[nH]ccc3c1)CC2` [Example 5, 8-[4-[(3S)-1-(3-fluoropropyl)pyrrolidin-3-yl]oxyphenyl]-7-(1H-indol-5-yl)-5,6-dihydronaphthalen-2-ol], the IC50 in experiment [1] is 72 nM; in experiment [2], 209 nM; in experiment [3] it was 28 nM. The DC50 on ERα in MCF7 cells is 0.5 nM. Besides, on ERα in MCF7 cells, the “% Degradation at 3 μM” value is 81%.

In the case of `Oc1ccc2c(c1)SCC(c1ccc(Cl)cc1Cl)=C2c1ccc(O[C@H]2CCN(CCCF)C2)cc1` [Example 21, 3-(2,4-dichlorophenyl)-4-[4-[(3S)-1-(3-fluoropropyl)pyrrolidin-3-yl]oxyphenyl]-2H-thiochromen-7-ol], the figures for the IC50 in experiment [1], in experiment [2] and in experiment [3] were 19 nM, 47 nM and 9 nM, respectively. In addition, the DC50 at ERα in MCF7 cells is 3 nM. The “% Degradation at 3 μM” value at ERα in MCF7 cells is 92%.

Take `CCOc1ccc(C2=C(c3ccc(O[C@H]4CCN(CCCF)C4)cc3)c3ccc(O)cc3OCC2)cn1` [Example 127, 4-(6-ethoxy-3-pyridyl)-5-[4-[(3S)-1-(3-fluoropropyl)pyrrolidin-3-yl]oxyphenyl]-2,3-dihydro-1-benzoxepin-8-ol]: the IC50 in experiment [1] turned out to be 24 nM; in experiment [2], 49 nM; in experiment [3] it was 3 nM. The DC50 on ERα in MCF7 cells came out at 0.8 nM. The “% Degradation at 3 μM” value on ERα in MCF7 cells stood at 90%.

On to `Oc1ccc2c(c1)OCCC(c1ccc3[nH]ccc3c1)=C2c1ccc(O[C@H]2CCN(CCCF)C2)cc1` [Example 93, 5-[4-[(3S)-1-(3-fluoropropyl)pyrrolidin-3-yl]oxyphenyl]-4-(1H-indol-5-yl)-2,3-dihydro-1-benzoxepin-8-ol], for which the IC50 was determined as 26 nM in experiment [1], 59 nM in experiment [2] and 8 nM in experiment [3]. In addition, on ERα in MCF7 cells, the DC50 amounted to 0.4 nM. Moreover, the “% Degradation at 3 μM” value at ERα in MCF7 cells was found to be 87%.

Regarding `Cc1ccc(C2=C(c3ccc(O[C@H]4CCN(CCCF)C4)cc3)c3cc(C)c(O)cc3OCC2)c(F)c1` [Example 140, 4-(2-fluoro-4-methyl-phenyl)-5-[4-[(3S)-1-(3-fluoropropyl)pyrrolidin-3-yl]oxyphenyl]-7-methyl-2,3-dihydro-1-benzoxepin-8-ol], the figures for the IC50 in experiment [1], in experiment [2] and in experiment [3] were 542 nM, 644 nM and 36 nM, respectively. Further, on ERα in MCF7 cells, the DC50 turned out to be 3 nM. Further, at ERα in MCF7 cells, the “% Degradation at 3 μM” value was 85%.

On to `Cc1ccc(C2=C(c3ccc(O[C@H]4CCN(CCCF)C4)cc3)c3cc(O)ccc3SCC2)c(F)c1` [Example 171, 4-(2-fluoro-4-methyl-phenyl)-5-[4-[(3S)-1-(3-fluoropropyl)pyrrolidin-3-yl]oxyphenyl]-2,3-dihydro-1-benzothiepin-7-ol], for which the IC50 in experiment [1] amounted to 87 nM; in experiment [2], 140 nM; in experiment [3], 24 nM. Moreover, the DC50 on ERα in MCF7 cells was 0.2 nM. The “% Degradation at 3 μM” value on ERα in MCF7 cells is recorded as 85%.

On to `Oc1ccc2c(c1)C(c1ccc(O[C@H]3CCN(CCCF)C3)cc1)=C(c1ccc(F)cc1Cl)CCS2` [Example 175, 4-(2-chloro-4-fluoro-phenyl)-5-[4-[(3S)-1-(3-fluoropropyl)pyrrolidin-3-yl]oxyphenyl]-2,3-dihydro-1-benzothiepin-7-ol], for which the IC50 amounted to 65 nM in experiment [1], 116 nM in experiment [2] and 20 nM in experiment [3]. On ERα in MCF7 cells, the DC50 came out at 0.3 nM. The “% Degradation at 3 μM” value on ERα in MCF7 cells worked out at 83%.

Regarding `Oc1ccc2c(c1)OCCC(c1ccc(F)cc1Cl)=C2c1ccc(O[C@H]2CCN(CCCF)C2)cc1` [Example 92, 4-(2-chloro-4-fluoro-phenyl)-5-[4-[(3S)-1-(3-fluoropropyl)pyrrolidin-3-yl]oxyphenyl]-2,3-dihydro-1-benzoxepin-8-ol], the results for the IC50 in experiment [1], in experiment [2] and in experiment [3] were 22 nM, 59 nM and 7 nM, respectively. In addition, at ERα in MCF7 cells, the DC50 is 0.5 nM. Further, the “% Degradation at 3 μM” value at ERα in MCF7 cells stood at 96%.
